Measurements from ChEMBL document CHEMBL3885881, “DrugMatrix”.

Species: Rattus norvegicus
Assay: DrugMatrix - Regimen: Daily Repeat
Format: toxicity, organism-based, Sprague-Dawley
Parameters: regimen Daily Repeat, gender Male, age 6-8 weeks
Conditions: in vivo, po, route oral GAVAGE, vehicle 100 % WATER; for ABSOLUTE BASOPHIL / ABSOLUTE EOSINOPHIL / ABSOLUTE LYMPHOCYTE / ABSOLUTE MONOCYTE / ABSOLUTE SEGMENTED NEUTROPHIL / BASOPHIL / EOSINOPHIL / ERYTHROCYTE COUNT / HEMATOCRIT / HEMOGLOBIN / LEUKOCYTE COUNT / LYMPHOCYTE / MEAN CORPUSCULAR HEMOGLOBIN / MEAN CORPUSCULAR HEMOGLOBIN CONCENTRATION / MEAN CORPUSCULAR VOLUME / MONOCYTE / NEUTROPHIL / NUCLEATED RED BLOOD CELLS / PLATELET COUNT: tissue Blood; for ALANINE AMINOTRANSFERASE / ALBUMIN / ALKALINE PHOSPHATASE / ASPARTATE AMINOTRANSFERASE / BLOOD UREA NITROGEN / CARBON DIOXIDE / CHLORIDE / CHOLESTEROL / CREATINE PHOSPHOKINASE / CREATININE / GLUCOSE / LACTATE DEHYDROGENASE / LIPASE / PHOSPHORUS / POTASSIUM / SODIUM / TOTAL BILIRUBIN / TOTAL PROTEIN / URIC ACID: tissue Plasma
[1] = 175 mg/kg, 120 h, dose level High, time 5 day
[2] = […], 72 h, dose 5.8 mg/Kg, dose level Low, time 3 day
[3] = […], 120 h, dose 5.8 mg/Kg, dose level Low, time 5 day

O=c1[nH]c(=O)n(C2CCCO2)cc1F (centres undefined) [TEGAFUR]
ABSOLUTE BASOPHIL [1]: 0 CELLS/uL
ABSOLUTE EOSINOPHIL [1]: 47 CELLS/uL
ABSOLUTE LYMPHOCYTE [1]: 11945 CELLS/uL
ABSOLUTE MONOCYTE [1]: 125.33 CELLS/uL
ABSOLUTE SEGMENTED NEUTROPHIL [1]: 416 CELLS/uL
BASOPHIL [1]: 0%
EOSINOPHIL [1]: 0.33%
ERYTHROCYTE COUNT [1]: 6.13 x10E6/uL
HEMATOCRIT [1]: 37.33%
HEMOGLOBIN [1]: 14.9 G/DL
LEUKOCYTE COUNT [1]: 12.53 x10E3/uL
LYMPHOCYTE [1]: 95.33%
MEAN CORPUSCULAR HEMOGLOBIN [1]: 24.33 pg
MEAN CORPUSCULAR HEMOGLOBIN CONCENTRATION [1]: 39.9 G/DL
MEAN CORPUSCULAR VOLUME [1]: 60.9 fL
MONOCYTE [1]: 1%
NEUTROPHIL [1]: 3.33%
NUCLEATED RED BLOOD CELLS [1]: 0 /100WBC
PLATELET COUNT [1]: 1252.33 x10E3/uL
ALANINE AMINOTRANSFERASE [1]: 40 u/L
ALBUMIN [1]: 4.43 G/DL
ALKALINE PHOSPHATASE [1]: 333 u/L
ASPARTATE AMINOTRANSFERASE [1]: 113 u/L
BLOOD UREA NITROGEN [1]: 19.67 mg/dL
CARBON DIOXIDE [1]: 26 mmol/L
CHLORIDE [1]: 106 MEQ/L
CHOLESTEROL [1]: 80.67 mg/dL
CREATINE PHOSPHOKINASE [1]: 419.33 u/L
CREATININE [1]: 0.24 mg/dL
GLUCOSE [1]: 146.33 mg/dL
LACTATE DEHYDROGENASE [1]: 797.67 u/L
LIPASE [1]: 9.33 u/L
PHOSPHORUS [1]: 10.2 mg/dL
POTASSIUM [1]: 5.48 MEQ/L
SODIUM [1]: 149.83 MEQ/L
TOTAL BILIRUBIN [1]: 0.17 mg/dL
TOTAL PROTEIN [1]: 6.13 G/DL
URIC ACID [1]: 1.43 mg/dL
ABSOLUTE BASOPHIL [2]: 0 CELLS/uL
ABSOLUTE EOSINOPHIL [2]: 50 CELLS/uL
ABSOLUTE LYMPHOCYTE [2]: 13948.67 CELLS/uL
ABSOLUTE MONOCYTE [2]: 166.67 CELLS/uL
ABSOLUTE SEGMENTED NEUTROPHIL [2]: 1434.67 CELLS/uL
BASOPHIL [2]: 0%
EOSINOPHIL [2]: 0.33%
ERYTHROCYTE COUNT [2]: 5.51 x10E6/uL
HEMATOCRIT [2]: 34.4%
HEMOGLOBIN [2]: 13.43 G/DL
LEUKOCYTE COUNT [2]: 15.6 x10E3/uL
LYMPHOCYTE [2]: 89.67%
MEAN CORPUSCULAR HEMOGLOBIN [2]: 24.37 pg
MEAN CORPUSCULAR HEMOGLOBIN CONCENTRATION [2]: 39.03 G/DL
MEAN CORPUSCULAR VOLUME [2]: 62.43 fL
MONOCYTE [2]: 1%
NEUTROPHIL [2]: 9%
NUCLEATED RED BLOOD CELLS [2]: 0 /100WBC
PLATELET COUNT [2]: 1387 x10E3/uL
ALANINE AMINOTRANSFERASE [2]: 47.33 u/L
ALBUMIN [2]: 4.23 G/DL
ALKALINE PHOSPHATASE [2]: 325.33 u/L
ASPARTATE AMINOTRANSFERASE [2]: 100.33 u/L
BLOOD UREA NITROGEN [2]: 15.33 mg/dL
CARBON DIOXIDE [2]: 28.33 mmol/L
CHLORIDE [2]: 100.33 MEQ/L
CHOLESTEROL [2]: 86 mg/dL
CREATINE PHOSPHOKINASE [2]: 626 u/L
CREATININE [2]: 0.22 mg/dL
GLUCOSE [2]: 138.67 mg/dL
LACTATE DEHYDROGENASE [2]: 764.67 u/L
LIPASE [2]: 9.67 u/L
PHOSPHORUS [2]: 12.43 mg/dL
POTASSIUM [2]: 6.48 MEQ/L
SODIUM [2]: 143.37 MEQ/L
TOTAL BILIRUBIN [2]: 0.17 mg/dL
TOTAL PROTEIN [2]: 5.97 G/DL
URIC ACID [2]: 1.57 mg/dL
ABSOLUTE BASOPHIL [3]: 0 CELLS/uL
ABSOLUTE EOSINOPHIL [3]: 53.67 CELLS/uL
ABSOLUTE LYMPHOCYTE [3]: 12194.67 CELLS/uL
ABSOLUTE MONOCYTE [3]: 43 CELLS/uL
ABSOLUTE SEGMENTED NEUTROPHIL [3]: 1808.67 CELLS/uL
BASOPHIL [3]: 0%
EOSINOPHIL [3]: 0.33%
ERYTHROCYTE COUNT [3]: 5.38 x10E6/uL
HEMATOCRIT [3]: 32.9%
HEMOGLOBIN [3]: 13.1 G/DL
LEUKOCYTE COUNT [3]: 14.1 x10E3/uL
LYMPHOCYTE [3]: 86.67%
MEAN CORPUSCULAR HEMOGLOBIN [3]: 24.33 pg
MEAN CORPUSCULAR HEMOGLOBIN CONCENTRATION [3]: 39.83 G/DL
MEAN CORPUSCULAR VOLUME [3]: 61.1 fL
MONOCYTE [3]: 0.33%
NEUTROPHIL [3]: 12.67%
NUCLEATED RED BLOOD CELLS [3]: 0.33 /100WBC
PLATELET COUNT [3]: 1303.67 x10E3/uL
ALANINE AMINOTRANSFERASE [3]: 51 u/L
ALBUMIN [3]: 4.13 G/DL
ALKALINE PHOSPHATASE [3]: 305.67 u/L
ASPARTATE AMINOTRANSFERASE [3]: 93.67 u/L
BLOOD UREA NITROGEN [3]: 16 mg/dL
CARBON DIOXIDE [3]: 24.33 mmol/L
CHLORIDE [3]: 102.67 MEQ/L
CHOLESTEROL [3]: 77.33 mg/dL
CREATINE PHOSPHOKINASE [3]: 365 u/L
CREATININE [3]: 0.22 mg/dL
GLUCOSE [3]: 140 mg/dL
LACTATE DEHYDROGENASE [3]: 424.33 u/L
LIPASE [3]: 9.33 u/L
PHOSPHORUS [3]: 11.73 mg/dL
POTASSIUM [3]: 6.27 MEQ/L
SODIUM [3]: 142.73 MEQ/L
TOTAL BILIRUBIN [3]: 0.27 mg/dL
TOTAL PROTEIN [3]: 5.97 G/DL
URIC ACID [3]: 1.6 mg/dL
